Measurements reported in patent US20130203718A1 (priority 2010, published 2013).
Entries after “also recorded” stand apart in the source; their conditions may differ.

Target: T1, hPRB (Homo sapiens, UniProt P06401)
T1 sequence (P06401 1-933): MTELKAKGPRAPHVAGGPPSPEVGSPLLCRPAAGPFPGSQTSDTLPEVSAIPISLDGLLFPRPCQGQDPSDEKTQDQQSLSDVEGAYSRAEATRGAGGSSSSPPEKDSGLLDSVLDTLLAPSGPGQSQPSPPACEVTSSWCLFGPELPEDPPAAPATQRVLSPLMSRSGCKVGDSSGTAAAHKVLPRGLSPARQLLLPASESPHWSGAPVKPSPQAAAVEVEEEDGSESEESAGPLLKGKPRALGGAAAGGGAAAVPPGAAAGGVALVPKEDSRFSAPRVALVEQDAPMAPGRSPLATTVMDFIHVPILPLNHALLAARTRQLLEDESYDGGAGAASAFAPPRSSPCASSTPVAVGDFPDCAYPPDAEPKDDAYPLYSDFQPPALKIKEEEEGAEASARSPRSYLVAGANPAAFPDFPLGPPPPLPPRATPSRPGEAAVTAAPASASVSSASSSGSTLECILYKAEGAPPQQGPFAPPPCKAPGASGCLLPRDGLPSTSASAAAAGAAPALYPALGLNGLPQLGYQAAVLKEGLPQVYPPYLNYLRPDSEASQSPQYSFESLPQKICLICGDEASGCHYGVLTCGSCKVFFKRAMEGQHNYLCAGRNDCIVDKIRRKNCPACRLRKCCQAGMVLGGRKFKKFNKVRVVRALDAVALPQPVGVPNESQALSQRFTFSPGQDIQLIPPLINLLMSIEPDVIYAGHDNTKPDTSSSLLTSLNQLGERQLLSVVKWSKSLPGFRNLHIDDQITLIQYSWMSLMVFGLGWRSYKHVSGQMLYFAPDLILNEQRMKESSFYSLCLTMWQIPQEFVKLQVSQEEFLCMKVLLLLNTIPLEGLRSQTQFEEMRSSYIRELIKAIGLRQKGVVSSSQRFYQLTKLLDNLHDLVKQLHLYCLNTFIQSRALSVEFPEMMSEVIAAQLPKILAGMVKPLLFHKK
Assay: PR transactivation assay (GRE2-Luc) in HEK293T cells transiently expressing hPRB
Assay type: cell-based
Design: expressed in transfected cells; host or cells: HEK 293T
Conditions: APRn 1 μM
Method in brief: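 HEK293T cells transiently transfected by calcium phosphate with human PRB, GRE2-Luc reporter and β-gal control, grown in dextran-charcoal-treated FCS. Luciferase measured in lysates; agonist efficacy at 1 μM compound as ratio of luciferase activities ×100, antagonist efficacy as 100 minus that ratio; mean±SEM of 3-5 experiments.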

[1] = series 2-4, stated for both HEK293T and MDA-MB-231 iPRAB cells, FIGS. 3-8
[2] = series 1 (no C3 substituent), HEK293T, FIG. 1

| SMILES | hPRB agonist/antagonist character (in words) [1] | hPRB agonist/antagonist character (in words) [2] |
| --- | --- | --- |
| CC(=O)[C@H]1CC[C@H]2[C@@H]3CC=C4C[C@@H](F)CC[C@]4(C)[C@H]3CC[C@]12C [APR-16, 3β-Fluoropregn-5-en-20-one] | efficient hPRB antagonists; also recorded: agonist activity of this molecule is completely abolished | – |
| CC#C[C@]1(O)CCC2C3CC[C@H]4CCCC[C@]4(C)C3CC[C@@]21C (stereo partly drawn) [APR-42, 17α-(1-Propynyl)-5α-androstan-17β-ol] | – | full antagonists |
| C[C@]12CCC3C(CC=C4C[C@@H](F)CC[C@@H]43)C1CCC2=O (stereo partly drawn) [APR-47, 3β-Fluoro-19-nor-androst-5-en-17-one] | efficient hPRB antagonists | – |
| CC#C[C@]1(O)CCC2C3CC[C@H]4CCCC[C@@H]4C3CC[C@@]21C (stereo partly drawn) [APR-54, 17α-(1-Propynyl)-19-nor-5-androstan-17β-ol] | – | full antagonists |
